Reference: ChEMBL document CHEMBL6074711, “Design, Synthesis, and Activity Evaluation of C-23-Modified 5-O-Mycaminosyltylonolide Derivatives” (ACS Med Chem Lett, 2024)
In brackets after ≈: the same amount, converted by molar mass.

Columns and labels:
Format in all cases: functional
Enterococcus faecalis = experiment: Antibacterial activity against Enterococcus faecalis ATCC29212 incubated for 16 to 20 hrs by broth microdilution method; conditions: time 16-20 hrs
[1] = test system: Stenotrophomonas maltophilia; experiment: Antibacterial activity against Stenotrophomonas maltophilia ATCC17808 incubated for 16 to 20 hrs by broth microdilution method; conditions: time 16-20 hrs
Staphylococcus aureus [2] = experiment: Antibacterial activity against Staphylococcus aureus ATCC25923 incubated for 16 to 20 hrs by broth microdilution method; conditions: time 16-20 hrs
Escherichia coli [3] = experiment: Antibacterial activity against Escherichia coli ATCC25922 incubated for 16 to 20 hrs by broth microdilution method; conditions: time 16-20 hrs
Escherichia coli [4] = experiment: Antibacterial activity against drug-resistant Escherichia coli clinical isolate 1322 incubated for 16 to 20 hrs by broth microdilution method; conditions: time 16-20 hrs
Escherichia coli [5] = experiment: Antibacterial activity against drug-resistant Escherichia coli clinical isolate 1333 incubated for 16 to 20 hrs by broth microdilution method; conditions: time 16-20 hrs
Staphylococcus aureus [6] = experiment: Antibacterial activity against drug-resistant Staphylococcus aureus clinical isolate M20 incubated for 16 to 20 hrs by broth microdilution method; conditions: time 16-20 hrs
Staphylococcus aureus [7] = experiment: Antibacterial activity against Staphylococcus aureus ATCC25923 under 10^7 CFU/ml of bacterial inoculum culture by absorbance based assay
Staphylococcus aureus [8] = experiment: Antibacterial activity against Staphylococcus aureus ATCC25923 under 10^4 CFU/ml of bacterial inoculum culture by absorbance based assay
Staphylococcus aureus [9] = experiment: Antibacterial activity against Staphylococcus aureus ATCC25923 under 10^5 CFU/ml of bacterial inoculum culture by absorbance based assay
Staphylococcus aureus [10] = experiment: Antibacterial activity against Staphylococcus aureus ATCC25923 under 10^6 CFU/ml of bacterial inoculum culture by absorbance based assay

MIC (Enterococcus faecalis) [µg/mL]	MIC [1] [µg/mL]	MIC (Staphylococcus aureus [2]) [µg/mL]	MIC (Escherichia coli [3]) [µg/mL]	SMILES	MIC (Escherichia coli [4]) [µg/mL]	MIC (Escherichia coli [5]) [µg/mL]	MIC (Staphylococcus aureus [6]) [µg/mL]	MIC (Staphylococcus aureus [7]) [µg/mL]	MIC (Staphylococcus aureus [8]) [µg/mL]	MIC (Staphylococcus aureus [9]) [µg/mL]	MIC (Staphylococcus aureus [10]) [µg/mL]
1 (≈ 1.06 µM)	1 (≈ 1.06 µM)	1 (≈ 1.06 µM)	1 (≈ 1.06 µM)	CC[C@H]1OC(=O)C[C@@H](O)[C@H](C)[C@@H](O[C@@H]2O[C@H](C)[C@@H](O)[C@H](N(C)C)[C@H]2O)[C@@H](CCN(C)Cc2cn(-c3cnc4ccccc4c3)nn2)C[C@@H](C)C(=O)/C=C/C(C)=C/[C@@H]1CNCc1cc(F)cc(F)c1	–	–	–	–	–	–	–
2 (≈ 2.08 µM)	1 (≈ 1.04 µM)	2 (≈ 2.08 µM)	1 (≈ 1.04 µM)	CC[C@H]1OC(=O)C[C@@H](O)[C@H](C)[C@@H](O[C@@H]2O[C@H](C)[C@@H](O)[C@H](N(C)C)[C@H]2O)[C@@H](CCNCc2cn(-c3cnc4ccccc4c3)nn2)C[C@@H](C)C(=O)/C=C/C(C)=C/[C@@H]1CNc1ccc(Br)cc1	–	–	–	–	–	–	–
4 (≈ 4.33 µM)	2 (≈ 2.16 µM)	1 (≈ 1.08 µM)	2 (≈ 2.16 µM)	CC[C@H]1OC(=O)C[C@@H](O)[C@H](C)[C@@H](O[C@@H]2O[C@H](C)[C@@H](O)[C@H](N(C)C)[C@H]2O)[C@@H](CCN(C)Cc2cn(-c3cnc4ccccc4c3)nn2)C[C@@H](C)C(=O)/C=C/C(C)=C/[C@@H]1CNCc1ccc(C)cc1	–	–	–	–	–	–	–
4 (≈ 4.1 µM)	4 (≈ 4.1 µM)	2 (≈ 2.05 µM)	4 (≈ 4.1 µM)	CC[C@H]1OC(=O)C[C@@H](O)[C@H](C)[C@@H](O[C@@H]2O[C@H](C)[C@@H](O)[C@H](N(C)C)[C@H]2O)[C@@H](CCN(C)Cc2cn(-c3cnc4ccccc4c3)nn2)C[C@@H](C)C(=O)/C=C/C(C)=C/[C@@H]1CNc1ccc(Br)cc1	–	–	–	–	–	–	–
8 (≈ 8.09 µM)	8 (≈ 8.09 µM)	4 (≈ 4.04 µM)	8 (≈ 8.09 µM)	CC[C@H]1OC(=O)C[C@@H](O)[C@H](C)[C@@H](O[C@@H]2O[C@H](C)[C@@H](O)[C@H](N(C)C)[C@H]2O)[C@@H](CCN(C)Cc2cn(-c3cnc4ccccc4c3)nn2)C[C@@H](C)C(=O)/C=C/C(C)=C/[C@@H]1CNCc1ccc(Br)cc1	–	–	–	–	–	–	–
8 (≈ 8.45 µM)	4 (≈ 4.23 µM)	4 (≈ 4.23 µM)	8 (≈ 8.45 µM)	CC[C@H]1OC(=O)C[C@@H](O)[C@H](C)[C@@H](O[C@@H]2O[C@H](C)[C@@H](O)[C@H](N(C)C)[C@H]2O)[C@@H](CCN(C)Cc2cn(-c3cnc4ccccc4c3)nn2)C[C@@H](C)C(=O)/C=C/C(C)=C/[C@@H]1CNc1ccc2ccccc2c1	–	–	–	–	–	–	–

Further lines, the molecule ahead of its results:

SMILES	MIC (Enterococcus faecalis) [µg/mL]	MIC [1] [µg/mL]	MIC (Staphylococcus aureus [2]) [µg/mL]	MIC (Escherichia coli [3]) [µg/mL]	MIC (Escherichia coli [4]) [µg/mL]	MIC (Escherichia coli [5]) [µg/mL]	MIC (Staphylococcus aureus [6]) [µg/mL]	MIC (Staphylococcus aureus [7]) [µg/mL]	MIC (Staphylococcus aureus [8]) [µg/mL]	MIC (Staphylococcus aureus [9]) [µg/mL]	MIC (Staphylococcus aureus [10]) [µg/mL]
CC[C@H]1OC(=O)C[C@@H](O)[C@H](C)[C@@H](O[C@@H]2O[C@H](C)[C@@H](O)[C@H](N(C)C)[C@H]2O)[C@@H](CCNCc2cn(-c3cnc4ccccc4c3)nn2)C[C@@H](C)C(=O)/C=C/C(C)=C/[C@@H]1CNCc1ccc(Cl)cc1	2 (≈ 2.15 µM)	1 (≈ 1.07 µM)	1 (≈ 1.07 µM)	2 (≈ 2.15 µM)	–	–	–	–	–	–	–
CC[C@H]1OC(=O)C[C@@H](O)[C@H](C)[C@@H](O[C@@H]2O[C@H](C)[C@@H](O)[C@H](N(C)C)[C@H]2O)[C@@H](CC=O)C[C@@H](C)C(=O)/C=C/C(C)=C/[C@@H]1CO	0.5 (≈ 0.836 µM)	> 32	0.5 (≈ 0.836 µM)	> 32	> 32	> 32	1 (≈ 1.67 µM)	–	–	–	–
CC[C@H]1OC(=O)C[C@@H](O)[C@H](C)[C@@H](O[C@@H]2O[C@H](C)[C@@H](O)[C@H](N(C)C)[C@H]2O)[C@@H](CCNCc2cn(-c3cnc4ccccc4c3)nn2)C[C@@H](C)C(=O)/C=C/C(C)=C/[C@@H]1CN(C)Cc1ccccc1	2 (≈ 2.2 µM)	2 (≈ 2.2 µM)	0.5 (≈ 0.549 µM)	2 (≈ 2.2 µM)	–	–	–	–	–	–	–
CC[C@H]1OC(=O)C[C@@H](O)[C@H](C)[C@@H](O[C@@H]2O[C@H](C)[C@@H](O)[C@H](N(C)C)[C@H]2O)[C@@H](CCN2C[C@H](C)C[C@H](C)C2)C[C@@H](C)C(=O)/C=C/C(C)=C/[C@@H]1CO[C@@H]1O[C@H](C)[C@@H](O)[C@@H](OC)[C@H]1OC [TILMICOSIN]	1 (≈ 1.15 µM)	> 32	1 (≈ 1.15 µM)	> 32	–	–	–	–	–	–	–
CC[C@H]1OC(=O)C[C@@H](O)[C@H](C)[C@@H](O[C@@H]2O[C@H](C)[C@@H](O)[C@H](N(C)C)[C@H]2O)[C@@H](CCNCc2cn(-c3cnc4ccccc4c3)nn2)C[C@@H](C)C(=O)/C=C/C(C)=C/[C@@H]1CNCc1ccc(Br)cc1	2 (≈ 2.05 µM)	2 (≈ 2.05 µM)	1 (≈ 1.03 µM)	2 (≈ 2.05 µM)	–	–	–	–	–	–	–
CCCNC[C@H]1/C=C(C)/C=C/C(=O)[C@H](C)C[C@H](CCNCc2cn(-c3cnc4ccccc4c3)nn2)[C@H](O[C@@H]2O[C@H](C)[C@@H](O)[C@H](N(C)C)[C@H]2O)[C@@H](C)[C@H](O)CC(=O)O[C@@H]1CC	–	–	1 (≈ 1.18 µM)	8 (≈ 9.43 µM)	–	–	–	–	–	–	–
C[C@@H](O)[C@H]1C(=O)N2C(C(=O)O)=C(S[C@@H]3CN[C@H](C(=O)N(C)C)C3)[C@H](C)[C@H]12 [MEROPENEM]	0.063 (≈ 0.164 µM)	0.125 (≈ 0.326 µM)	0.063 (≈ 0.164 µM)	0.125 (≈ 0.326 µM)	–	–	–	2 (≈ 5.22 µM)	0.25 (≈ 0.652 µM)	0.5 (≈ 1.3 µM)	1 (≈ 2.61 µM)
